According to patent US12642809B2, “Fucosylation and immune modulation in cancer” (H. LEE MOFFITT CANCER CENTER AND RESEARCH INSTITUTE, INC., priority 2019, dated 2026):
“Also recorded” adds a separate entry of the source.

Key:
[1] = test system: MDSCs; test: T cell proliferation in co-culture with pre-treated MDSCs; format: cell-based; details: CD3/CD28 activation, CellTrace Violet
Experimental: Shown progressive divisions of CD3/CD28-activated T cells (both CD4+ and CD8+ combined) as affected by co-culture with DMSO (control)-, FUTi (fucosyltransferase inhibitor)-, or L-fucose-pre-treated MDSCs. Undivided T cells are represented by the dark grey column. Divisions were measured by loss of CellTrace™ Violet stain. First division is represented by the light green column; second division is represented by the yellow column; and third division is represented by the navy blue column.

[2] = test system: SM1 tumors; test: Anti-PD1 ± L-fucose, SM1 (BRAF-mutant) model in C57BL/6 mice; format: in vivo, mouse
Excerpt: Fucosylation of HLA-DRB1 occurs on amino acid N48 (mutation to G abolishes interaction with fucose-binding AAL, lectin) (FIG. 9A). […] To further investigate the efficacy of the combination therapy of L-fucose and anti-PD1 and to see if the combination of L-fucose and anti-PD1 improved the efficacy of either agent alone, two mouse melanoma mouse models were used. The first was the NRAS-mutant melanoma mouse model. Here, C3H mice were pretreated with anti-PD1 and/or L-fucose or a L-fucose pre-dose followed by anti-PD1 antibody (FIG. 11). […] Using a BRAF-mutant melanoma model, the efficacy of the combination therapy was more pronounced. Here C57BL6 mice were challenged with SMI cells (FIG. 11). 7 days post challenge, mice received either a control, anti-PD1, L-fucose, or L-fucose and anti-PD1.
SW1 or SM1 mouse melanoma cells were injected into syngeneic C3H/HeN female or C57BL/6 male mice, respectively. After approximately 7 days, when the mice tumors reached ˜150 mm^3, the mice were either supplemented with or without 100 mM L-fucose (Biosynth (Oak Terrace, IL)) via drinking water, which was provided ad libitum. Simultaneously, the mice were injected either with PBS (control) or anti-PD1 (20 mg/kg, clone RMP1-14, Bioxcell (West Lebanon, NH)) every 3-4 days until endpoint. When the tumors reached ˜2 cm^3, the animals were sacrificed.

[3] = test system: HLA-DRB1; test: Flow cytometry of cell surface HLA-DRB1 in melanoma cells; format: cell-based, human; details: 250 μM, 72 h, panel of melanoma cell lines
Experimental: Indicated cells were treated for 72 h with DMSO, 250 μM fucosyltransferase inhibitor (FUTi) (Millipore Sigma (St. Louis, MO)), or 250 μM of L-fucose (Biosynth (Oak Terrace, IL)). After 72 h, cells were stained with 0.1 μM PKH26 (Millipore Sigma (St. Louis, MO)) prior to fixation in 4% formaldehyde solution. The cells were stained with anti-HLA-DRB1 (rabbit anti-human HLA-DRB1 (0.2 μg/mL, ab92371, Abcam (Cambridge, UK)) and fluorescein AAL (0.2 μg/ml. Vector Labs (Burlingame, CA)), or anti-human or anti-mouse PD-L1 (Novus Biologicals (Centennial, CO) or Biolegend (San Diego, CA), respectively) overnight. The following day the cells were washed 3 times prior to adding AlexaFluor 594 donkey anti-rabbit (0.8 μg/mL, ThermoFisher Scientific (Waltham, MA)). Cells were washed 3 times and then subject to flow cytometric analyses using a FACSCalibur™ (BD Biosciences (San Jose, CA)). Samples were analyzed using FlowJo™ analysis software (BD Biosciences (San Jose, CA)). Median values of DRB1 and AAL were normalized to PKH26 values and statistical analysis was performed using GraphPad Prism™.

[4] = test system: SW1 tumors; test: H2K1/EB1 knockdown and EB1 fucomutant reconstitution SW1 tumor model; format: in vivo, mouse; details: for L-fuc-triggered tumor suppression: EB1 (IEβ) knockdown tumors (shEB1, shEB1+EV)
Experimental: Single-cell suspensions from tumor and spleen tissue were stained with Live/Dead Zombie NIR (Biolegend, (San Diego, CA)) at 1:1,000 in PBS for 20 min. Cell suspensions were spun down and stained with the following antibodies: APC anti-mouse CD3 (0.5 μg/mL, BD Biosciences (San Jose, CA)), Pacific Blue anti-mouse CD4 ([…], BD Biosciences (San Jose, CA)), BV785 anti-mouse CD8 (0.5 μg/mL, BD Biosciences (San Jose, CA)), PerCP anti-mouse CD25 ([…], BD Biosciences (San Jose, CA)), FITC anti-mouse F4/80 (0.5 μg/mL, BD Biosciences (San Jose, CA)), PeCy7 anti-mouse CD11c (0.5 μg/mL, BD Biosciences (San Jose, CA)), PE anti-mouse NK1.1 (0.5 μg/mL, BD Biosciences (San Jose, CA)), PE anti-mouse DX5 (0.5 μg/mL, BD Biosciences (San Jose, CA)), PerCP-Cy5.5 anti-mouse CD11b (0.5 μg/mL, BD Biosciences (San Jose, CA)). After staining, the cells were washed and fixed (2% formaldehyde), followed by another wash and flow cytometric analysis. The compensation controls were prepared using 0.5 μg/ml. of each antibody with beads UltraComp eBeads™, (ThermoFisher Scientific (Waltham, MA)). All samples were subject to flow cytometric analysis using a LSR Flow Cytometer (BD Biosciences (San Jose, CA)). Flow cytometric data was further analyzed using FlowJo™ analysis software (BD Biosciences (San Jose, CA)). TIL profiles were determined as a measure of TIL subpopulations per gram of tumor tissues or % of total splenocytes.
SW1 mouse melanoma cells expressing either shNT (non-targeting shRNA), shH2K1, shEB1, shNT+EV, shEB1+EV, shEB1+EB1 WT, or shEB1+EB1 N46G were injected into syngeneic C3H/HeN female mice. After approximately 7 days, when the mice tumors reached ˜150 mm^3, the mice were either supplemented with or without 100 mM L-fucose (Biosynth (Oak Terrace, IL)) via drinking water, which was provided ad libitum. When the tumors reached ˜2 cm^3, the animals were sacrificed, and the tumors were either processed for flow cytometric profiling or for histological analysis as indicated

[5] = test system: MDSCs; test: IFNγ of T cells co-cultured with pre-treated MDSCs; format: cell-based, BalbC mice; details: CD3/CD28 bead activation
Excerpt: Shown are IFNγ production/secretion levels of combined bulk CD4^+ and CD8^+ T cells from BalbC mice treated with either DMSO (black column) or L-fucose (red column) or co-cultured with MDSCs pre-treated with DMSO (aquamarine column) or with L-fucose (purple column). The T cells were activated using CD3/CD28 beads.

`C[C@H](O)[C@@H](O)[C@@H](O)[C@H](O)C=O` [L-fucose] was tested. Which “effect of pre-treated MDSCs on T cell proliferation” value [1] did it give?
Its value is “do not”.

And the tumor growth suppressed ([2]; for 21 days)?
The tumor growth suppressed was greater than 50%.

And the “tumor suppression compared with anti-PD1” value ([2]; single agents)?
The value was “less effective than anti-PD1”.

And the “cell surface HLA-DRB1 relative to DMSO” value [3]?
The value was “promotes cell surface abundance; also recorded: increased”.

And the “cell surface HLA-DRB1 relative to DMSO” value ([3]; listed as L-fuc)?
The value was “increased”.

What about the L-fuc-triggered tumor suppression [4] of the same compound?
The L-fuc-triggered tumor suppression was “abrogates”.

And the L-fuc-triggered tumor suppression ([4]; listed as L-fuc)?
The L-fuc-triggered tumor suppression was “completely abrogated”.

What about the reduced tumor growth ([4]; control knockdown (shNT / shNT+EV) tumors) of the same compound?
The reduced tumor growth was roughly 60%.

And the tumor suppression ([4]; shEB1+N46G tumors)?
The tumor suppression was “did not suppress”.

What about the reduced tumor growth ([4]; shEB1+WT tumors) of the same compound?
The reduced tumor growth was greater than 60%.

What about the “L-fuc-triggered induction of total TIL counts and subpopulations” value ([4]; shEB1 tumors) of the same compound?
The value was “reduced; also recorded: abrogated”.

What about the “TIL induction by L-fuc” value ([4]; shEB1 tumors reconstituted with EB1 WT) of the same compound?
The value was “restored”.

And the “TIL induction by L-fuc” value ([4]; shEB1 tumors reconstituted with EV or EB1 N46G)?
Its value is “did not”.

What about the “MDSC-mediated suppression of T cell IFNγ production/secretion” value [5] of the same compound?
The value was “completely reverts MDSC-mediated T cell suppression”.
